Several values for one entry are separate records, joined by “and”; a condition that tells them apart may be missing. Equal entries are not always repeated.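 Step 1: Grow cells in 96-well plates. Step 2: Expose to compound for 48 hours at 5 concentrations. Step 3: Interpolate endpoints linearly; if unreached, use highest concentration. GI50 = concentration required for 50% inhibition of growth.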 Activity calls are given as the source filed them. Rule as the data show it: active = GI50 up to about 1.1 µM and inactive = higher.
Columns and labels:
Test in all cases: NCI-60 cell line screen, 48 h
[1] = test system: A498
[2] = test system: ACHN
[3] = test system: CAKI-1
[4] = test system: DU-145
[5] = test system: HL-60
[6] = test system: HOP-62
[7] = test system: K562
[8] = test system: LOX IMVI
[9] = test system: M14
[10] = test system: MDA-N
[11] = test system: Malme-3M
[12] = test system: OVCAR-4
[13] = test system: RPMI-8226
[14] = test system: SF-268
[15] = test system: SK-MEL-2
[16] = test system: SK-MEL-5
[17] = test system: SR
[18] = test system: U-251
[19] = test system: UO-31
[20] = test system: HOP-92

Row | SMILES | GI50 [1] | GI50 [2] | GI50 [3] | GI50 [4] | GI50 [5] | GI50 [6] | GI50 [7] | GI50 [8] | GI50 [9] | GI50 [10] | GI50 [11] | GI50 [12] | GI50 [13] | GI50 [14] | GI50 [15] | GI50 [16] | GI50 [17] | GI50 [18] | GI50 [19] | GI50 [20]
1 | COc1ccc2c(c1)CC1=C(O2)c2ccc(OC)cc2OC1 | > 100 µM (inactive) | 18.2 µM (inactive) | 18.7 µM (inactive) | 44.1 µM (inactive) | > 100 µM (inactive) | 41.9 µM (inactive) | 44.8 µM (inactive) | 13.6 µM (inactive) | 19.7 µM (inactive) | 17.5 µM (inactive) | 22.5 µM (inactive) | 22.5 µM (inactive) | 33.7 µM (inactive) | 24.4 µM (inactive) | 31.3 µM (inactive) | 18.2 µM (inactive) | 36.8 µM (inactive) | 17.5 µM (inactive) | 61.2 µM (inactive) | –
2 | COC1OC(Cn2cc([N+](=O)[O-])nc2C)C(O)C(O)C1O (centres undefined) | > 100 µM (inactive) | > 100 µM (inactive) | > 100 µM (inactive) | > 100 µM (inactive) | – | > 100 µM (inactive) | > 100 µM (inactive) | – | > 100 µM (inactive) | > 100 µM (inactive) | 5.93 µM (inactive) | > 100 µM (inactive) | > 100 µM (inactive) | – | > 100 µM (inactive) | > 100 µM (inactive) | > 100 µM (inactive) | > 100 µM (inactive) | > 100 µM (inactive) | > 100 µM (inactive)
3 | CCN(CC)CCn1c2cc3c(cc2c(=O)c2cccnc21)OCCO3 | 0.0912 µM (active) | 4.99 µM (inactive) | > 10 µM (inactive) | > 10 µM (inactive) | > 10 µM (inactive) | > 10 µM (inactive) | – | – | > 10 µM (inactive) | > 10 µM (inactive) | > 10 µM (inactive) | > 10 µM (inactive) | > 10 µM (inactive) | > 10 µM (inactive) | – | > 10 µM (inactive) | 4.44 µM (inactive) | > 10 µM (inactive) | – | > 10 µM (inactive)
4 | CC1C2CC(CC2=O)C1(C)C (centres undefined) | > 100 µM (inactive) | > 100 µM (inactive) | > 100 µM (inactive) | > 100 µM (inactive) | > 100 µM (inactive) | > 100 µM (inactive) | > 100 µM (inactive) | – | > 100 µM (inactive) | > 100 µM (inactive) | > 100 µM (inactive) | > 100 µM (inactive) | – | > 100 µM (inactive) | – | > 100 µM (inactive) | > 100 µM (inactive) | > 100 µM (inactive) | > 100 µM (inactive) | > 100 µM (inactive)
5 | COc1c(C)c(OCC=C(C)C)cc(CO)c1CO | 44.1 µM (inactive) | 67.8 µM (inactive) | 46.8 µM (inactive) | 92 µM (inactive) | 47.5 µM (inactive) | 56.5 µM (inactive) | 26.3 µM (inactive) | 28.9 µM (inactive) | > 100 µM (inactive) | 71.3 µM (inactive) | – | 35.6 µM (inactive) | 20.4 µM (inactive) | > 100 µM (inactive) | 71.4 µM (inactive) | 22.6 µM (inactive) | 18.2 µM (inactive) | 50.1 µM (inactive) | – | > 100 µM (inactive)
6 | COc1ccc(-c2c3ccccc3c(-c3ccc(OCCBr)cc3)c3ccccc23)cc1 | > 100 µM (inactive) | > 100 µM (inactive) | > 100 µM (inactive) | > 100 µM (inactive) | > 100 µM (inactive) | > 100 µM (inactive) | – | > 100 µM (inactive) | > 100 µM (inactive) | > 100 µM (inactive) | > 100 µM (inactive) | > 100 µM (inactive) | > 100 µM (inactive) | > 100 µM (inactive) | > 100 µM (inactive) | > 100 µM (inactive) | > 100 µM (inactive) | > 100 µM (inactive) | 0.102 µM (active) | –
7 | FC(F)(F)c1cccnc1Sc1nc2ccccc2s1 | > 100 µM (inactive) | > 100 µM (inactive) | > 100 µM (inactive) | > 100 µM (inactive) | – | 57.8 µM (inactive) | > 100 µM (inactive) | – | 37.6 µM (inactive) | > 100 µM (inactive) | > 100 µM (inactive) | > 100 µM (inactive) | 45.8 µM (inactive) | > 100 µM (inactive) | 20.7 µM (inactive) | > 100 µM (inactive) | 30.9 µM (inactive) | > 100 µM (inactive) | 32.1 µM (inactive) | 16.3 µM (inactive)
8 | O=C(N(C1=CCCC1)N(c1ccccc1)c1ccccc1)C(F)(F)F | 51.8 µM (inactive) | 17.3 µM (inactive) | 20.2 µM (inactive) | 30.8 µM (inactive) | 20.3 µM (inactive) | 25.5 µM (inactive) | 19.5 µM (inactive) | 15.8 µM (inactive) | 26.2 µM (inactive) | 23.9 µM (inactive) | 3.76 µM (inactive) | 25.4 µM (inactive) | – | 16.7 µM (inactive) | 17.1 µM (inactive) | 16.3 µM (inactive) | 31 µM (inactive) | 19.8 µM (inactive) | 31.6 µM (inactive) | 10.5 µM (inactive)
9 | N#Cc1c(-c2ccccc2)c(C#N)c(=S)n(C2OC(CO)C(O)C(O)C2O)c1N (centres undefined) | 38.7 µM (inactive) and 44.2 µM (inactive) | 99.8 µM (inactive) and 61.2 µM (inactive) | 92.7 µM (inactive) | > 100 µM (inactive) | > 100 µM (inactive) | – | > 100 µM (inactive) and 59.4 µM (inactive) | 86.9 µM (inactive) | > 100 µM (inactive) | > 100 µM (inactive) | > 100 µM (inactive) | > 100 µM (inactive) | > 100 µM (inactive) and 75.5 µM (inactive) | > 100 µM (inactive) | > 100 µM (inactive) | 71.6 µM (inactive) | > 100 µM (inactive) | > 100 µM (inactive) | – | –
10 | O=c1c2ccccc2nc2[nH][nH]c(=S)n12 | > 100 µM (inactive) | > 100 µM (inactive) | > 100 µM (inactive) | > 100 µM (inactive) | > 100 µM (inactive) | > 100 µM (inactive) | > 100 µM (inactive) | > 100 µM (inactive) | > 100 µM (inactive) | > 100 µM (inactive) | – | – | > 100 µM (inactive) | > 100 µM (inactive) | > 100 µM (inactive) | > 100 µM (inactive) | > 100 µM (inactive) | > 100 µM (inactive) | > 100 µM (inactive) | > 100 µM (inactive)
11 | O=C1C=Cc2c(Cl)sc(Cl)c21 | 4.06 µM (inactive) | 1.71 µM (inactive) | 2.15 µM (inactive) | 2.32 µM (inactive) | – | 1.74 µM (inactive) | 0.767 µM (active) | 0.372 µM (active) | 1.87 µM (inactive) | 2.53 µM (inactive) | – | 6.01 µM (inactive) | 0.675 µM (active) | 1.66 µM (inactive) | 2.2 µM (inactive) | 2.11 µM (inactive) | 0.347 µM (active) | 2.99 µM (inactive) | 1.6 µM (inactive) | 1.5 µM (inactive)
12 | COc1ccc(N(C(=O)Nc2ccc(Cl)c(Cl)c2)c2ccccc2)cc1 | > 10 µM (inactive) | > 10 µM (inactive) | > 10 µM (inactive) | > 10 µM (inactive) | > 10 µM (inactive) | > 10 µM (inactive) | > 10 µM (inactive) | > 10 µM (inactive) | > 10 µM (inactive) | > 10 µM (inactive) | > 10 µM (inactive) | > 10 µM (inactive) | – | > 10 µM (inactive) | – | > 10 µM (inactive) | > 10 µM (inactive) | > 10 µM (inactive) | > 10 µM (inactive) | > 10 µM (inactive)
13 | O=C1/C(=C/c2ccccc2O)N=C(c2ccccc2)N1C1Nc2cc3c(cc2S1)NC(N1C(=O)/C(=C/c2ccccc2O)N=C1c1ccccc1)S3 (centres undefined) | 20 µM (inactive) | 21.7 µM (inactive) | 56.5 µM (inactive) | 42.8 µM (inactive) | 28.9 µM (inactive) | 31.2 µM (inactive) | 29.9 µM (inactive) | 42.2 µM (inactive) | 38.3 µM (inactive) | 14 µM (inactive) | – | 60.5 µM (inactive) | 26.1 µM (inactive) | 16.6 µM (inactive) | 35.2 µM (inactive) | 29.7 µM (inactive) | 18.3 µM (inactive) | 29.6 µM (inactive) | 23 µM (inactive) | 0.489 µM (active)
14 | O=C(N/N=C\c1ccc([N+](=O)[O-])cc1)c1ccccc1Nc1ccccc1C(=O)N/N=C/c1ccc([N+](=O)[O-])cc1 | > 100 µM (inactive) | > 100 µM (inactive) | > 100 µM (inactive) | > 100 µM (inactive) | 89.7 µM (inactive) | > 100 µM (inactive) | > 100 µM (inactive) | – | 27.3 µM (inactive) | > 100 µM (inactive) | 39.4 µM (inactive) | > 100 µM (inactive) | > 100 µM (inactive) | > 100 µM (inactive) | > 100 µM (inactive) | > 100 µM (inactive) | 79.3 µM (inactive) | > 100 µM (inactive) | > 100 µM (inactive) | > 100 µM (inactive)
15 | COC(=O)/C=C/[C@H]1[C@H](C)N1S(=O)(=O)c1ccc(C)cc1 (some centres undefined) | > 100 µM (inactive) | 89.7 µM (inactive) | > 100 µM (inactive) | > 100 µM (inactive) | > 99.5 µM (inactive) | > 100 µM (inactive) | > 100 µM (inactive) | 61.7 µM (inactive) | > 100 µM (inactive) | > 100 µM (inactive) | 50.2 µM (inactive) | 56.8 µM (inactive) | 51.6 µM (inactive) | > 100 µM (inactive) | 68.7 µM (inactive) | > 100 µM (inactive) | 31.6 µM (inactive) | > 100 µM (inactive) | – | –

From ChEMBL document CHEMBL1201862, “PubChem BioAssay data set” (2004)
